Tests used:
TGF-beta receptor type-1 = target: T1, TGF-beta receptor type-1 (Homo sapiens, UniProt P36897); experiment: Inhibition of human recombinant GST-fused ALK5 expressed in Sf9 cells
T1 sequence (P36897 whole entry): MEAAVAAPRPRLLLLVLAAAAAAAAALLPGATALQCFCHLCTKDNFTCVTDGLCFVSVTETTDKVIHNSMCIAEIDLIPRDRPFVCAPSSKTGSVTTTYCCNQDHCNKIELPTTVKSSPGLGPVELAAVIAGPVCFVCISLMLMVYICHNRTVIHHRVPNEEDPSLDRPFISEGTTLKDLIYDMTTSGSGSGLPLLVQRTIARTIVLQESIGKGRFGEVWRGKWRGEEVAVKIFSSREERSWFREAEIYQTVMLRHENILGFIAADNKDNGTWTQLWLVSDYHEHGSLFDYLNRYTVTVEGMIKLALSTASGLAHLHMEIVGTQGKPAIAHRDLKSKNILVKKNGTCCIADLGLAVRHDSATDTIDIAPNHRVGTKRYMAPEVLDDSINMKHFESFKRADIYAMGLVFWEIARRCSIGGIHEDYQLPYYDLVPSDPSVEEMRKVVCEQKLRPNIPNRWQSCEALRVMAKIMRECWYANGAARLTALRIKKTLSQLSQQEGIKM

[1] = target: Mitogen-activated protein kinase 14 (Homo sapiens, UniProt Q16539); experiment: Inhibition of human recombinant p38alpha expressed in Escherichia coli using ATF2 as a substrate by radioisotopic protein kinase assay
Chain of Mitogen-activated protein kinase 14 (Q16539 whole entry): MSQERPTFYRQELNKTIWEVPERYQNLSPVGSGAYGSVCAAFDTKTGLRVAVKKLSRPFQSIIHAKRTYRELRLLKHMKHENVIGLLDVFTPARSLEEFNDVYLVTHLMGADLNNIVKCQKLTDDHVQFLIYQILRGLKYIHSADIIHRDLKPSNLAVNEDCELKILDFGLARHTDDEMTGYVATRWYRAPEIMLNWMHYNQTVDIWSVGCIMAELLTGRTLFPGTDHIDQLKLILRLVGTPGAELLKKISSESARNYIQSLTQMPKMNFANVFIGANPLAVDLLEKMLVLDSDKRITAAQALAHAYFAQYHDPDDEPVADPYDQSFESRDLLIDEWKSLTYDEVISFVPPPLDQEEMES

[2] = target: T2, TGF-beta receptor type-1 (Homo sapiens) (UniProt P36897); experiment: Inhibition of human recombinant ALK5 activity in human HaCaT cells assessed as inhibition of TGFbeta-induced p3TP-luciferase reporter activity; type: cell-based
T2 sequence (whole entry): T1 sequence (P36897 whole entry)

Compound | IC50 (TGF-beta receptor type-1) [nM] | IC50 [1] [nM] | inhibition [2]
Cc1cccc(-c2c(-c3ccc4ncccc4c3)cnn2CC(=O)Nc2ccccc2)n1 | > 1000 | > 1000 | 
Cc1cccc(-c2nn(CC(=S)Nc3ccccc3)cc2-c2ccc3ncccc3c2)n1 | 94 | > 1000 | 
COc1ccnc2ccc(-c3cn(CC(=O)Nc4cccc(C#N)c4)nc3-c3cccc(C)n3)cc12 | > 1000 | > 1000 | 
Cc1cccc(-c2nn(CC(=O)Nc3cccc(C(N)=O)c3)cc2-c2ccc3ncccc3c2)n1 | 75 | > 1000 | 
Cc1cccc(-c2nn(CC(=O)Nc3cccc(C#N)c3)cc2-c2ccc3ncccc3c2)n1 | 22 | > 1000 | Dose-dependent effect
Cc1cccc(-c2nn(CC(=S)Nc3cccc(C#N)c3)cc2-c2ccc3ncccc3c2)n1 | 51 | > 1000 | 
Cc1cccc(-c2nn(CCC(=O)Nc3cccc(C#N)c3)cc2-c2ccc3ncccc3c2)n1 | 101 | > 1000 | 
Cc1cccc(-c2nn(CC(=O)Nc3ccccc3)cc2-c2ccc3ncccc3c2)n1 | 207 | > 1000 | 
COc1ccnc2ccc(-c3cnn(CC(=O)Nc4ccccc4)c3-c3cccc(C)n3)cc12 | > 1000 | > 1000 | 
Cc1cccc(-c2nn(CCC(=S)Nc3ccccc3)cc2-c2ccc3ncccc3c2)n1 | 88 | > 1000 | 
COc1ccnc2ccc(-c3cnn(CC(=O)Nc4cccc(C#N)c4)c3-c3cccc(C)n3)cc12 | > 1000 | > 1000 | 
COc1ccnc2ccc(-c3cn(CCC(=O)Nc4cccc(C#N)c4)nc3-c3cccc(C)n3)cc12 | > 1000 | > 1000 | 
Cc1cccc(-c2nn(CCC(=O)Nc3ccccc3)cc2-c2ccc3ncccc3c2)n1 | 25 | > 1000 | 
Cc1cccc(-c2c(-c3ccc4ncccc4c3)cnn2CC(=O)Nc2cccc(C#N)c2)n1 | > 1000 | > 1000 | 
Cc1cccc(-c2c(-c3ccc4ncccc4c3)cnn2CC(=O)Nc2cccc(C(N)=O)c2)n1 | > 1000 | > 1000 | 
Cc1cccc(-c2nn(CCC(=S)Nc3cccc(C#N)c3)cc2-c2ccc3ncccc3c2)n1 | 232 | 630 | 
Cc1cccc(-c2[nH]c(Cc3cccc(C(N)=O)c3)nc2-c2ccc3nccnc3c2)n1 | 17 | 480 | 
COc1ccnc2ccc(-c3cn(CC(=O)Nc4ccccc4)nc3-c3cccc(C)n3)cc12 | > 1000 | > 1000 | 
